Data reported in patent US20240336654A1, “ANTIMICROBIAL PEPTIDOMIMETICS” (SPEXIS AG, priority 2021, published 2024).
Where a SMILES comes first, the peptide text is derived from it. Bridges are numbered along the chain shown (N, C = ends). [ ]: non-standard residue; d: D form. Hyp = O=C(O)[C@@H]1C[C@@H](O)CN1; Pen = CC(C)(S)[C@H](N)C(=O)O; dDab = NCC[C@@H](N)C(=O)O; Dab = NCC[C@H](N)C(=O)O

Experiments:
Assay type in all cases: cell-based
[1] = system: human red blood cells (hRBC); conditions: red cells of human, 1 h, 200 μg/mL
Experimental: Lyophilized peptides were weighed on a Microbalance (Mettler MT5) and dissolved in sterile water to a final concentration of 1 mg/mL. Stock solutions were kept at +4° C., light protected. The peptides were tested for their hemolytic activity against human red blood cells (hRBC). Fresh hRBC were washed three times with phosphate buffered saline (PBS) and centrifuged for 5 min at 3000×g. Compounds (200 μg/mL) were incubated with 20% hRBC (v/v) for 1 h at 37° C. and shaking at 300 rpm. A value of 0% and 100% cell lyses, respectively, was determined by incubation of hRBC in the presence of PBS and 2.5% Triton X-100 in H2O, respectively. The samples were centrifuged, the supernatants were 8-fold diluted in PBS buffer and the optical densities (OD) were measured at 540 nm. The 100% lyses value (OD540H2O) gave an OD540 of approximately 0.5-1.0. Percent hemolysis was calculated as follows: (OD540peptide/OD540H2O)×100%.

[2] = system: Escherichia coli ATCC 25922; conditions: ATCC 25922
Experimental: (§1) Lyophilized peptides were weighed on a Microbalance (Mettler MT5) and dissolved in sterile water to a final concentration of 1 mg/mL. Stock solutions were kept at +4° C., light protected.
(§2) The selective antimicrobial activities of the peptides were determined in 96-well plates (Greiner, polystyrene) by the standard CLSI broth microdilution method (Clinical and Laboratory Standards Institute. Methods for Dilution Antimicrobial Susceptibility Tests for Bacteria That Grow Aerobically; Approved Standard-Ninth Edition. CLSI document M07-A9 (ISBN 1-56238-783-9 [Print]; ISBN 1-56238-784-7 [Electronic]). Clinical and Laboratory Standards Institute, 950 West Valley Road, Suite 2500, Wayne, Pennsylvania 19087, USA, 2012) with slight modifications.
(§3) Colonies of the microorganisms were diluted in saline (0.85%, NaCl) and adjusted using a McFarland reader (bioMérieux SA, Marcy-l'Etoile, France) to 0.5 McFarland standard. Subsequently, the bacterial suspension was diluted in Mueller-Hinton II (MHII, cation adjusted) broth to give approximately 5×10^5 colony forming units (CFU/mL).
(§4) Inocula of the microorganisms were diluted into Mueller-Hinton II (MH, cation adjusted) broth and compared with a 0.5 McFarland standard to give appr. 10^6 colony forming units (CFU)/mL. Aliquots (90 μl) of inoculate were added to 10 μl of water+P-80 (Polysorbate 80, 0.002% final concentration) containing the peptide in serial two-fold dilutions at 10 fold final concentration. The following microorganisms were used to determine antibiotic selectivity of the peptides: Escherichia coli ATCC 25922, Escherichia coli MCR-1 Af 45 and Klebsiella pneumoniae SSI3010. Antimicrobial activities of the peptides were expressed as the minimal inhibitory concentration (MIC) in μg/mL at which no visible growth was observed after 18-20 hours of incubation at 35° C.

[3] = system: Escherichia coli MCR-1 Af 45; conditions: MCR-1 Af 45
Experimental: as §1, §2, §3, §4

[4] = system: Klebsiella pneumoniae SSI3010; conditions: SSI3010
Experimental: as §1, §2, §3, §4

Compound: CC[C@H](C)[C@H](NC(=O)[C@@H]1C[C@@H](O)CN1C(=O)[C@@H](N)C(C)C)C(=O)N[C@@H]1C(=O)N[C@@H](Cc2ccc(O)cc2)C(=O)N[C@@H]([C@@H](C)O)C(=O)N[C@@H](CC(N)=O)C(=O)N[C@@H](CCCNC(=N)N)C(=O)N[C@@H](CCN)C(=O)N[C@@H](CC(N)=O)C(=O)N[C@H](CCN)C(=O)N[C@@H](CCCCN)C(=O)N[C@@H](CCN)C(=O)N[C@@H](CCN)C(=O)N[C@H](C(=O)N[C@@H](Cc2ccc(O)cc2)C(=O)O)CSSC1(C)C [Example 19, Val-Hyp-Ile-Pen-Tyr-Thr-Asn-Arg-Dab-Asn-^DDab-Lys-Dab-Dab-Cys-Tyr] (H-V[Hyp]I[Pen]YTNR[Dab]N[dDab]K[Dab][Dab]CY-OH; disulfide 4-15)
- Hemolysis at 0.2 g/L [1]: <1%
- Escherichia coli ATCC 25922 MIC [2]: 0.125 µg/mL
- Escherichia coli MCR-1 Af45 MIC [3]: 0.125 µg/mL
- Klebsiella pneumoniae SSI3010 MIC [4]: 0.25 µg/mL

Compound: CC[C@H](C)[C@H](NC(=O)[C@@H]1C[C@@H](O)CN1C(=O)[C@@H](N)C(C)C)C(=O)N[C@@H]1C(=O)N[C@@H](Cc2ccc(O)cc2)C(=O)N[C@@H](CO)C(=O)N[C@@H](C)C(=O)N[C@@H](CCCNC(=N)N)C(=O)N[C@@H](CCN)C(=O)N[C@@H]([C@@H](C)O)C(=O)N[C@H](CCN)C(=O)N[C@@H](CCCCN)C(=O)N[C@@H](CCN)C(=O)N[C@@H](CCN)C(=O)N[C@H](C(=O)N[C@@H](Cc2ccc(O)cc2)C(=O)O)CSSC1(C)C [Example 20, Val-Hyp-Ile-Pen-Tyr-Ser-Ala-Arg-Dab-Thr-^DDab-Lys-Dab-Dab-Cys-Tyr] (H-V[Hyp]I[Pen]YSAR[Dab]T[dDab]K[Dab][Dab]CY-OH; disulfide 4-15)
- Hemolysis at 0.2 g/L [1]: <1%
- Escherichia coli ATCC 25922 MIC [2]: 0.5 µg/mL
- Escherichia coli MCR-1 Af45 MIC [3]: 0.5 µg/mL
- Klebsiella pneumoniae SSI3010 MIC [4]: 1 µg/mL

Compound: CC[C@H](C)[C@@H]1NC(=O)[C@H](CO)NC(=O)[C@H](Cc2ccc(O)cc2)NC(=O)[C@@H](NC(=O)[C@@H](NC(=O)[C@@H]2C[C@@H](O)CN2C(=O)[C@@H](N)C(C)C)[C@@H](C)CC)C(C)(C)SSC[C@@H](C(=O)N[C@@H](Cc2ccc(O)cc2)C(=O)O)NC(=O)[C@H](CCN)NC(=O)[C@H](CCN)NC(=O)[C@H](CCCCN)NC(=O)[C@@H](CCN)NC(=O)[C@H]([C@@H](C)O)NC(=O)[C@H](CCN)NC(=O)[C@H](CCCNC(=N)N)NC1=O [Example 21, Val-Hyp-Ile-Pen-Tyr-Ser-Ile-Arg-Dab-Thr-^DDab-Lys-Dab-Dab-Cys-Tyr] (H-V[Hyp]I[Pen]YSIR[Dab]T[dDab]K[Dab][Dab]CY-OH; disulfide 4-15)
- Hemolysis at 0.2 g/L [1]: <1%
- Escherichia coli ATCC 25922 MIC [2]: 0.0625 µg/mL
- Escherichia coli MCR-1 Af45 MIC [3]: 0.0625 µg/mL
- Klebsiella pneumoniae SSI3010 MIC [4]: 0.125 µg/mL

Compound: CC[C@H](C)[C@H](NC(=O)[C@@H]1C[C@@H](O)CN1C(=O)[C@@H](N)C(C)C)C(=O)N[C@@H]1C(=O)N[C@@H](Cc2ccc(O)cc2)C(=O)N[C@@H](CO)C(=O)N[C@@H](CCC(=O)O)C(=O)N[C@@H](CCCNC(=N)N)C(=O)N[C@@H](CCN)C(=O)N[C@@H]([C@@H](C)O)C(=O)N[C@H](CCN)C(=O)N[C@@H](CCCCN)C(=O)N[C@@H](CCN)C(=O)N[C@@H](CCN)C(=O)N[C@H](C(=O)N[C@@H](Cc2ccc(O)cc2)C(=O)O)CSSC1(C)C [Example 22, Val-Hyp-Ile-Pen-Tyr-Ser-Glu-Arg-Dab-Thr-^DDab-Lys-Dab-Dab-Cys-Tyr] (H-V[Hyp]I[Pen]YSER[Dab]T[dDab]K[Dab][Dab]CY-OH; disulfide 4-15)
- Hemolysis at 0.2 g/L [1]: <1%
- Escherichia coli ATCC 25922 MIC [2]: 0.5 µg/mL
- Escherichia coli MCR-1 Af45 MIC [3]: 0.25 µg/mL
- Klebsiella pneumoniae SSI3010 MIC [4]: 0.5 µg/mL
